{
  "source": "paper PMC4039632",
  "about": "(Journal of molecular biology, 2013)",
  "molecular_target": "T1, EngD (Endoglucanase D) (Clostridium cellulovorans, UniProt P28623)",
  "T1 sequence (P28623 32-515)": "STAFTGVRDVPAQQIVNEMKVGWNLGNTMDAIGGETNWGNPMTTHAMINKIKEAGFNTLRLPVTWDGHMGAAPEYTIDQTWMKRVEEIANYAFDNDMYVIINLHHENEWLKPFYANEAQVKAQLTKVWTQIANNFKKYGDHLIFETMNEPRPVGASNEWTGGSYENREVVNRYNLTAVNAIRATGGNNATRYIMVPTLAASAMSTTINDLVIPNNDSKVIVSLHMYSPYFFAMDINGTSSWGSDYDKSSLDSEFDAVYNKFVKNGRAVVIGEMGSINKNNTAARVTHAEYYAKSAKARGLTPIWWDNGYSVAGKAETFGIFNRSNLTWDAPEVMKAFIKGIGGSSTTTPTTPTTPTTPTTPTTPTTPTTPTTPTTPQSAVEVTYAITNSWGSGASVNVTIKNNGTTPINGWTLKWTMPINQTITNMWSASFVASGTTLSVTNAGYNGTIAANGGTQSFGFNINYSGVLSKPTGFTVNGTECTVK",
  "experiment": "HPLC of hydrolysis products",
  "assay_type": "biochemical",
  "conditions": "2 mM substrate, 100 mM sodium citrate pH 5.0, 37 °C, 30 min",
  "data": [
    {"molecule": "OC[C@H]1O[C@@H](O[C@H]2[C@H](O)[C@@H](O)[C@H](O[C@H]3[C@H](O)[C@@H](O)[C@H](O[C@H]4[C@H](O)[C@@H](O)[C@H](O[C@H]5[C@H](O)[C@@H](O)[C@H](O[C@H]6[C@H](O)[C@@H](O)C(O)O[C@@H]6CO)O[C@@H]5CO)O[C@@H]4CO)O[C@@H]3CO)O[C@@H]2CO)[C@H](O)[C@@H](O)[C@@H]1O", "note": "(stereo partly shown) [G6, cellohexaose]", "values": [
      {"measurement": "HPLC of hydrolysis products", "result": "Wild type EngD produced an equal amount cellotriose and cellobiose in the degradation of cellohexaose"}
    ]}
  ]
}
